We go through 13 compounds from ChEMBL document CHEMBL1130449, “Potent novel nonsteroidal androgen antagonists with a phthalimide skeleton” (1997).

Assay [1] relates to HL-60. Kind of assay: Production of TNF-alpha by HL-60 cells in the presence of 50 nM okadaic acid with 300 nM test compound.
Assay [2] has as its system SC-3. Kind of assay: Growth inhibition of androgen-dependent clonal cell line SC-3, derived from Shionogi carcinoma 115. The format is functional, Mus musculus. Details: unit not given here.
The test system of assay [3] is HL-60. Kind of assay: Production of TNF-alpha in HL-60 cells in the presence of 50 nM okadaic acid with 30 uM test compound.

Consider `C[C@@H](c1ccccc1)N1C(=O)c2c(F)c(F)c(F)c(F)c2C1=O`, for which the Production in assay [1] was 2%. The No. of cells in assay [2] is given as 16.

For `C[C@H](c1ccccc1)N1C(=O)c2c(F)c(F)c(F)c(F)c2C1=O`, the Production in assay [1] came out at 70%. Further, the No. of cells in assay [2] worked out at 3.

`O=C1c2c(F)c(F)c(F)c(F)c2C(=O)N1CC1Cc2ccccc2C1`: the Production in assay [1] amounted to 43%. In assay [2], this compound returned a No. of cells of 61.

As to `C[C@H](C1CCCCC1)N1C(=O)c2c(F)c(F)c(F)c(F)c2C1=O`, the Production in assay [1] was 65%. The compound also returned a No. of cells in assay [2] of 5.

Turning to `C[C@@H](c1cccc2ccccc12)N1C(=O)c2c(F)c(F)c(F)c(F)c2C1=O`, the Production in assay [1] is 2%. Further, the No. of cells in assay [2] was 9.

Take `O=C1c2ccccc2C(=O)N1CC1Cc2ccccc2C1`: in assay [3], the Production was 50%. For the same compound, the No. of cells in assay [2] is on record as 56.

In the case of `CC(=O)C(CN1C(=O)c2ccccc2C1=O)C(C)=O`, the Production in assay [3] was 72%. In addition, in assay [2], the No. of cells turned out to be 49.

For the compound `O=C1c2ccccc2C(=O)N1Cc1c(Cl)cccc1Cl`, the Production in assay [3] amounted to 39%. In assay [2], this compound displayed a No. of cells of 69.

Regarding `C[C@H](c1cccc2ccccc12)N1C(=O)c2c(F)c(F)c(F)c(F)c2C1=O`, in assay [1], the Production was determined as 101%. This compound also displayed a No. of cells in assay [2] of 14.

As to `C[C@@H](C1CCCCC1)N1C(=O)c2c(F)c(F)c(F)c(F)c2C1=O`, the Production in assay [1] is listed as 10%. Besides, the No. of cells in assay [2] was 2.

Turning to `O=C1c2c(F)c(F)c(F)c(F)c2C(=O)N1Cc1c(Cl)cccc1Cl`, in assay [1], the Production worked out at 76%. This compound came in with a No. of cells in assay [2] of 45.

Turning to `O=C1c2ccccc2C(=O)N1CNc1ccccc1`, the Production in assay [3] was found to be 73%. In assay [2], this compound showed a No. of cells of 91.

For the compound `CC(C)C(=O)Nc1ccc([N+](=O)[O-])c(C(F)(F)F)c1` [FLUTAMIDE], in assay [3], the Production was 103%. The No. of cells in assay [2] is given as 66.
